# Reference: US6436980B1, “Peptidomimetic efflux pump inhibitors” (priority 1998, dated 2002)
# Test system: Pseudomonas aeruginosa PAM1001
# Experiment: Checkerboard assay (broth microdilution): levofloxacin MIC in presence of efflux pump inhibitor
# Type: cell-based
# Method: Potentiation effect is observed by the reduction of the minimum inhibitory concentration of levofloxacin in the presence of the experimental efflux pump inhibitor. The activity of efflux pump inhibitors (EPI) in combination with fluoroquinolones, such as levofloxacin, is assessed by the checkerboard assay (Antimicrobial Combinations. In Antibiotics in Laboratory Medicine, Ed. Victor Lorian, M.D., Fourth edition, 1996, pp 333-338) using broth microdilution method performed as recommended by the NCCLS (National Committee for Clinical Laboratory Standards (NCCLS). 1997. Methods for Dilution of Antimicrobial Susceptibility Tests for Bacteria That Grow Aerobically—Fourth Edition; Approved Standard. NCCLS Document M7-A4, Vol 17 No.2). The test organism used is Pseudomonas aeruginosa PAM1001. […] The compounds tabulated below are representative of the described invention.
# In this assay, multiple dilutions of two drugs, namely the EPI and levofloxacin, are being tested, alone and in combination, at concentrations equal to, above and below their respective minimal inhibitory concentrations (MICs). In the case of EPI, most of these compounds are devoid of intrinsic antimicrobial activity and are tested at the maximum concentration of 40 μg/mL. The MIC of levofloxacin against P. aeruginosa PAM1001 is 4 μg/mL.
# The EPI tested are readily soluble in water and stock solutions are prepared at a final concentration of 2 mg/mL. Stock solutions are further diluted, according to the needs of a particular assay, in Mueller Hinton Broth (MHB). Stock solution can be stored at −80° C. Quinolones are solubilized according to the instructions of the manufacturers, at a concentration of 1 mg/mL. They are then further diluted in MB. Stock solution can be stored at −80° C.
# The checkerboard assay is performed in microtiter plates. Levofloxacin is diluted in the x axis, each column containing a single concentration of levofloxacin. The EPI is diluted in the y axis, each row containing an equal concentration of EPI. The result of these manipulations is that each well of the microtiter plate contains a unique combination of concentrations of the two agents. Each EPI are tested independently.
# The assay is performed in MHB with a final bacterial inoculum of 5×10^5 CFU/mL (from an early-log phase culture). Microtiter plates are incubated during 20 h at 35° C. and are read using a microtiterplate reader (Molecular Devices) at 650 nm as well as visual observation using a microtiter plate reading mirror.
SMILES,"Levofloxacin MIC Against P. aeruginosa PAM1001 in Presence of Efflux Pump Inhibitor (EPI), Minimum Inhibitory Concentration (EPI Conc. 0 μg/mL (levofloxacin alone))","Levofloxacin MIC Against P. aeruginosa PAM1001 in Presence of Efflux Pump Inhibitor (EPI), Minimum Inhibitory Concentration (EPI Conc. 0.625 μg/mL)","Levofloxacin MIC Against P. aeruginosa PAM1001 in Presence of Efflux Pump Inhibitor (EPI), Minimum Inhibitory Concentration (EPI Conc. 1.25 μg/mL)","Levofloxacin MIC Against P. aeruginosa PAM1001 in Presence of Efflux Pump Inhibitor (EPI), Minimum Inhibitory Concentration (EPI Conc. 2.5 μg/mL)","Levofloxacin MIC Against P. aeruginosa PAM1001 in Presence of Efflux Pump Inhibitor (EPI), Minimum Inhibitory Concentration (EPI Conc. 5 μg/mL)","Levofloxacin MIC Against P. aeruginosa PAM1001 in Presence of Efflux Pump Inhibitor (EPI), Minimum Inhibitory Concentration (EPI Conc. 10 μg/mL)","Levofloxacin MIC Against P. aeruginosa PAM1001 in Presence of Efflux Pump Inhibitor (EPI), Minimum Inhibitory Concentration (EPI Conc. 20 μg/mL)","Levofloxacin MIC Against P. aeruginosa PAM1001 in Presence of Efflux Pump Inhibitor (EPI), Minimum Inhibitory Concentration (EPI Conc. 40 μg/mL)","MIC (Pseudomonas aeruginosa, PAM1001, read-out: MIC of levofloxacin against P. aeruginosa PAM1001)"
"NCCC[C@@H](N)C(=O)N[C@H](CCc1ccccc1)C(O)c1nc2ncccc2o1.O=C(O)C(F)(F)F (mixture of isomers) [Compound 36, (2R)-2,5-Diamino-N-[(1R)-1-[(RS)-(1-oxazolo[4,5-b]pyridin-2-yl)-hydroxymethyl]-3-phenylpropyl]valeramide Trifluoroacetate]",4 µg/mL,4 µg/mL,4 µg/mL,4 µg/mL,4 µg/mL,4 µg/mL,2 µg/mL,2 µg/mL,
"C[C@H]1COc2c(N3CCN(C)CC3)c(F)cc3c(=O)c(C(=O)O)cn1c23 [levofloxacin, reference compound]",,,,,,,,,4 µg/mL
